The values that follow are results of earlier work, collected in patent publication US7022337B2 (Shire Laboratories, Inc., priority 2002, dated 2006).

The conditions of this data set: prolonged treatment, 300 to 400 mg per day.

Structures are written as SMILES.

`CC(C)OC(=O)C(C)(C)Oc1ccc(C(=O)c2ccc(Cl)cc2)cc1` [Fenofibrate, 2-[4-(4-Chlorobenzoyl)phenoxy]-2-methylpropanoic acid 1-methylethyl ester]: the “Reduction in the levels of triglycerides” value was 40 to 50% and the “Reduction in total cholesterol” value is 20 to 25%.
